Data: patent publication US6503942B2, “Ethers of O-Desmethyl venlafaxine” (Wyeth, priority 1999, dated 2003)

melting point: 112 to 113 °C
SMILES: CN(C)CC(c1ccc(OCOC(=O)C(C)(C)C)cc1)C1(O)CCCCC1.O=C(O)/C=C\C(=O)O (stereo not shown) [Example 5, {4-[2-(Dimethylamino)-1-(1-hydroxycyclohexyl)ethyl]phenoxy}methyl Pivalate Maleate Salt]
